Measurements from publication PMC4769088, “Antifungal Activity and Action Mechanism of Histatin 5-Halocidin Hybrid Peptides against Candida ssp” (PLoS ONE, 2016).
Like-named read-outs stand apart in the source and are kept apart here. Where a SMILES comes first, the peptide text is derived from it. Bridges are numbered along the chain shown (N, C = ends). Roman numbers before positions name the chains, in order. Where no end group is shown, it is not given here.

What was measured:
[1] = system: C. guilliermondi CCARM 14019; format: cell-based
Experimental: (§1) To determine the candidacidal activity of the peptides, we used Candida strains obtained from the Culture collection of antimicrobial resistant microbes at Seoul Women’s University in Korea. These included three Candida albicans (CCARM 14020, 14021, 14022), Candida guillermondi and Candida tropicalis. In addition, Candida albicans SC5413 was kindly provided by Dr Jeong-Yoon Kim at the Department of Microbiology & Molecular Biology, Chungnam University, Korea. Yeast were cultured overnight at 30°C in 10 ml of yeast extract-peptone-dextrose (YPD) broth (Qbiogene), then diluted in 10 ml of YPD broth to OD600 = 0.2 and grown for an additional 4 h with shaking at 30°C until OD600 = 0.8 in order to obtain mid-log phase cultures. The peptides (Hst 5, P113, HHP1, HHP2, PH1, PH2, di-PH1, di-PH2, WP1, di-WP2, di-15Hc and di-18Hc) in this study were synthesized by using standard solid-phase synthesis protocols and were purified by reversed-phase high-performance liquid chromatography at Anygen Inc. (Korea). FITC-labeled peptides (F-Hst5, F-P113, F-HHP1, F-di-PH2, F-di-WP2 and F-di-18Hc) were also synthesized by 6-aminohexnoic acid linker at Anygen (Korea) for confocal experiments.
(§2) The candidacidal activities of the peptides were tested by using standard microdilution plate assays, radial diffusion assays and broth dilution assay slightly modified from the procedure recommended by the National Committee for Clinical Laboratory Standards. For the candidacidal assays, C. albicans cells were grown in YPD medium and washed twice with 10 mM sodium phosphate buffer (NaPB; Na2HPO4, NaH2PO4, pH 7.4). The cells (1 x 10^6) were then mixed with different concentrations of peptides and incubated at 30°C with constant shaking for 60 min. For energy depletion experiments, cells were pre-incubated with 10 mM NaPB containing 5 mM NaN3 at 30°C for 60 min before the addition of peptides. The cell suspensions were diluted in 10 mM NaPB and aliquots of 500 cells were spread onto YPD agar plates then incubated for 24 h at 30°C to visualize the surviving colonies. Cell survival was expressed as a percentage of that for the control, and the loss of viability was calculated as [1 x (number of colonies from peptide-treated cells/number of colonies from control cells)] x 100. Candidacidal assays were performed in triplicate. For the radial diffusion assay, C. albicans cells were grown in YPD medium overnight and washed twice with 10 mM NaPB. Washed yeast-phase C. albicans cells (1 x 10^6 CFU) were trapped in thin underlay gels containing 9 mM sodium phosphate, 1 mM sodium citrate buffer, 1% (wt/vol) agarose (A6013; Sigma), and 0.3 mg of Sabouraud dextrose broth (Difco)/ml. After incubation at 37°C for 3 h, a 10 ml overlay gel of 1% agarose and 6% Sabouraud dextrose broth was poured on the underlay gel and then the plates were incubated overnight at 37°C. The clear-zone diameters were measured to the nearest 0.1 mm and graphed against the peptide concentration. Zone diameters were expressed in units (0.1 mm = 1 unit). For the broth dilution assay, the Candida strains were cultured in LYM broth for 18 h at 30°C. The numbers of yeasts were counted using a hemocytometer. Stock peptide solutions were prepared to a concentration of 320 μg/ml in distilled water, and were then serially diluted twofold, to 5 μg/ml. 100 μl aliquots of the diluted culture media containing candida cells (1 x 10^3) were dispensed into the wells of 96-well polypropylene microtiter plates (Costar 3879, Corning, NY), to which peptide solution (11 μl) was then added. In the experiments conducted to assess the candidacidal activity of peptides in the presence of salt, we used LYM supplemented with 150 mM NaCl for the culture medium, which was mixed with the peptide solution. The antifungal activities were evaluated after 24 h of incubation at 30°C by the observation of visible turbidity the wells. […]

[2] = system: C. guilliermondi CCARM 14018; format: cell-based
Experimental: as §1, §2

Candida albicans cells = experiment: Confocal microscopy localization and FITC-peptide/PI uptake assay; format: cell-based; settings: FITC-peptides and propidium iodide uptake assay, measured for 60 min
Experimental: To confirm the killing effect of the peptides, washed Candida cells (1 × 10^7 cells/ml) were treated with the peptides and propidium iodide (PI) was added. For energy depletion experiments, cells were pre-incubated with 10 mM NaPB containing 5 mM NaN3 at 30°C for 60 min before the addition of peptides. Propidium iodide (PI) uptake was measured using a multi reader and calculated with the formula [propidium iodide (PI) uptake value of peptide-treated cells—propidium iodide (PI) value of control cells] C. albicans cells were attached to concanavalin A (Sigma, 1 mg/ml solution in water) coated coverglass in chambered wells (Lab-Tek II). Cells (1 x 10^6) were deposited in each well, and 1 ml of 10 mM NaPB containing 5 μg PI (Sigma) and FITC-labeled peptides (Final concentration 10 μg/ml) were added to the chamber. Confocal images were acquired with an Olympus Fluoview FV10i-DOC (Olympus, Tokyo, Japan). ImageJ software was used for image acquisition and analysis.  Fig 5 Localizations of FITC-peptides in Candida albicans cells. C. albicans cells were incubated for 10 minutes with 10 μg/ml of FITC-peptides and visualized by confocal microscopy. […] FITC-peptides and PI uptake was measured for 60 min in Perkin Elmer 2030 reader (VictorX 3).

[3] = CD spectra, secondary structure analysis; format: physicochemical; settings: solvent Laminarin (20 mg/ml in buffer), 200 μg/ml peptide
C. tropicalis = experiment: Broth dilution assay (MIC); format: cell-based, Candida tropicalis
Experimental: as §1
The candidacidal activities of the peptides were tested by using standard microdilution plate assays, radial diffusion assays and broth dilution assay slightly modified from the procedure recommended by the National Committee for Clinical Laboratory Standards. For the candidacidal assays, C. albicans cells were grown in YPD medium and washed twice with 10 mM sodium phosphate buffer (NaPB; Na2HPO4, NaH2PO4, pH 7.4). The cells (1 x 10^6) were then mixed with different concentrations of peptides and incubated at 30°C with constant shaking for 60 min. For energy depletion experiments, cells were pre-incubated with 10 mM NaPB containing 5 mM NaN3 at 30°C for 60 min before the addition of peptides. The cell suspensions were diluted in 10 mM NaPB and aliquots of 500 cells were spread onto YPD agar plates then incubated for 24 h at 30°C to visualize the surviving colonies. Cell survival was expressed as a percentage of that for the control, and the loss of viability was calculated as [1 x (number of colonies from peptide-treated cells/number of colonies from control cells)] x 100. Candidacidal assays were performed in triplicate. For the radial diffusion assay, C. albicans cells were grown in YPD medium overnight and washed twice with 10 mM NaPB. […] The clear-zone diameters were measured to the nearest 0.1 mm and graphed against the peptide concentration. […] The numbers of yeasts were counted using a hemocytometer. […] The antifungal activities were evaluated after 24 h of incubation at 30°C by the observation of visible turbidity the wells. […]

[4] = NaCl 150 mM, LYM supplemented with 150 mM NaCl, 24 h at 30°C

Compound | MICs ([1]; CCARM 14019, 24 h) [µg/mL] | MICs [1, 4] | MICs ([2]; CCARM 14018, 24 h) [µg/mL] | MICs [2, 4] | FITC intensity in Candida cells (Candida albicans cells) | Secondary structure (%) Beta [3] [%] | Secondary structure (%) Helix [3] [%] | Secondary structure (%) Random [3] [%] | Secondary structure (%) Turn [3] [%] | killing activities against C. tropicalis in 150 mM NaCl salt (C. tropicalis) | increase in MIC against C. tropicalis at 150 mM salt (C. tropicalis; 150 mM NaCl versus no salt) [fold]
AKRHHGYKRKFH-NH2 [P113] | 0.5 to 1 | 32< μg/ml | 0.5 to 1 | 32< μg/ml | increased in a time dependent manner | 0.2 | 2.8 | 72.2 | 24.7 | – | –
CC(C)C[C@H](NC(=O)[C@@H](N)Cc1c[nH]c2ccccc12)C(=O)N[C@@H](CC(N)=O)C(=O)N[C@@H](C)C(=O)N[C@@H](CCCCN)C(=O)N[C@@H](CCCNC(=N)N)C(=O)N[C@@H](Cc1c[nH]cn1)C(=O)N[C@@H](Cc1c[nH]cn1)C(=O)NCC(=O)N[C@@H](Cc1ccc(O)cc1)C(=O)N[C@@H](CCCCN)C(=O)N[C@@H](CSSC[C@H](NC(=O)[C@H](CCCCN)NC(=O)[C@H](Cc1ccc(O)cc1)NC(=O)CNC(=O)[C@H](Cc1c[nH]cn1)NC(=O)[C@H](Cc1c[nH]cn1)NC(=O)[C@H](CCCNC(=N)N)NC(=O)[C@H](CCCCN)NC(=O)[C@H](C)NC(=O)[C@H](CC(N)=O)NC(=O)[C@H](CC(C)C)NC(=O)[C@@H](N)Cc1c[nH]c2ccccc12)C(=O)N[C@@H](CCCCN)C(=O)N[C@@H](Cc1ccccc1)C(=O)N[C@@H](Cc1c[nH]cn1)C(N)=O)C(=O)N[C@@H](CCCCN)C(=O)N[C@@H](Cc1ccccc1)C(=O)N[C@@H](Cc1c[nH]cn1)C(N)=O [di-WP2] (I: H-WLNAKRHHGYKCKFH-NH2 / II: H-WLNAKRHHGYKCKFH-NH2; disulfide I:12-II:12 (inferred); N-terminus assumed) | 4 to 8 | – | 2 to 4 | – | – | 24.5 | 0.0 | 54.7 | 20.8 | retained | –
CC(C)C[C@H](NC(=O)CNC(=O)[C@H](Cc1c[nH]cn1)NC(=O)[C@H](Cc1c[nH]cn1)NC(=O)[C@H](CC(C)C)NC(=O)[C@H](CC(C)C)NC(=O)[C@H](C)NC(=O)[C@H](CC(N)=O)NC(=O)[C@H](CC(C)C)NC(=O)[C@@H](N)Cc1c[nH]c2ccccc12)C(=O)N[C@@H](CC(N)=O)C(=O)N[C@@H](CSSC[C@H](NC(=O)[C@H](CC(N)=O)NC(=O)[C@H](CC(C)C)NC(=O)CNC(=O)[C@H](Cc1c[nH]cn1)NC(=O)[C@H](Cc1c[nH]cn1)NC(=O)[C@H](CC(C)C)NC(=O)[C@H](CC(C)C)NC(=O)[C@H](C)NC(=O)[C@H](CC(N)=O)NC(=O)[C@H](CC(C)C)NC(=O)[C@@H](N)Cc1c[nH]c2ccccc12)C(=O)N[C@@H](C)C(=O)N[C@@H](CCCCN)C(=O)NCC(=O)N[C@H](C(=O)N[C@@H](CC(C)C)C(=O)N[C@@H](C)C(N)=O)C(C)C)C(=O)N[C@@H](C)C(=O)N[C@@H](CCCCN)C(=O)NCC(=O)N[C@H](C(=O)N[C@@H](CC(C)C)C(=O)N[C@@H](C)C(N)=O)C(C)C [di-18Hc, reference compound] (I: H-WLNALLHHGLNCAKGVLA-NH2 / II: H-WLNALLHHGLNCAKGVLA-NH2; disulfide I:12-II:12 (inferred); N-terminus assumed) | 4 to 8 | – | – | – | – | 29.7 | 29.2 | 30.3 | 10.8 | retained | –
C[C@H](NC(=O)[C@H](Cc1c[nH]cn1)NC(=O)[C@H](CO)NC(=O)[C@@H](N)CC(=O)O)C(=O)N[C@@H](CCCCN)C(=O)N[C@@H](CCCNC(=N)N)C(=O)N[C@@H](Cc1c[nH]cn1)C(=O)N[C@@H](Cc1c[nH]cn1)C(=O)NCC(=O)N[C@@H](Cc1ccc(O)cc1)C(=O)N[C@@H](CCCCN)C(=O)N[C@@H](CCCNC(=N)N)C(=O)N[C@@H](CCCCN)C(=O)N[C@@H](Cc1ccccc1)C(=O)N[C@@H](Cc1c[nH]cn1)C(=O)N[C@@H](CCC(=O)O)C(=O)N[C@@H](CCCCN)C(=O)N[C@@H](Cc1c[nH]cn1)C(=O)N[C@@H](Cc1c[nH]cn1)C(=O)N[C@@H](CO)C(=O)N[C@@H](Cc1c[nH]cn1)C(=O)N[C@@H](CCCNC(=N)N)C(=O)NCC(=O)N[C@@H](Cc1ccc(O)cc1)C(=O)O [Hst 5, Histatin 5] | 2 to 4 | 32< μg/ml | 1 to 2 | 32< μg/ml | increased in a time dependent manner | 21.7 | 0.0 | 62 | 16.3 | – | –
CC(C)C[C@H](NC(=O)CNC(=O)[C@H](Cc1c[nH]cn1)NC(=O)[C@H](Cc1c[nH]cn1)NC(=O)[C@H](CCCNC(=N)N)NC(=O)[C@H](CCCCN)NC(=O)[C@H](C)N)C(=O)N[C@@H](CC(N)=O)C(=O)N[C@@H](CSSC[C@H](NC(=O)[C@H](CC(N)=O)NC(=O)[C@H](CC(C)C)NC(=O)CNC(=O)[C@H](Cc1c[nH]cn1)NC(=O)[C@H](Cc1c[nH]cn1)NC(=O)[C@H](CCCNC(=N)N)NC(=O)[C@H](CCCCN)NC(=O)[C@H](C)N)C(=O)N[C@@H](C)C(=O)N[C@@H](CCCCN)C(=O)N[C@@H](Cc1ccccc1)C(=O)N[C@@H](Cc1c[nH]cn1)C(N)=O)C(=O)N[C@@H](C)C(=O)N[C@@H](CCCCN)C(=O)N[C@@H](Cc1ccccc1)C(=O)N[C@@H](Cc1c[nH]cn1)C(N)=O [di-PH2] (I: H-AKRHHGLNCAKFH-NH2 / II: H-AKRHHGLNCAKFH-NH2; disulfide I:9-II:9 (inferred); N-terminus assumed) | – | – | – | 32< μg/ml | increased in a time dependent manner | 0.0 | 20.5 | 61.1 | 18.4 | retained | 2
